Laboratory results from US10669258B2, “3-sulfonyl-5-aminopyridine-2,4-diol APJ agonists” (BRISTOL-MYERS SQUIBB COMPANY, priority 2016, dated 2020).

target: T1, human APJ receptor (Homo sapiens, UniProt P35414); assay: Intracellular cAMP accumulation assay (APJ hcAMP, HTRF); type: cell-based; settings: HEK293 cells stably expressing human APJ receptor; inhibition of forskolin-mediated cAMP production; Table 1; read-out: hAPJ cAMP EC50 Potency range
T1 construct: expressed in transfected cells; host or cells: HEK293
T1 sequence (P35414 1-380): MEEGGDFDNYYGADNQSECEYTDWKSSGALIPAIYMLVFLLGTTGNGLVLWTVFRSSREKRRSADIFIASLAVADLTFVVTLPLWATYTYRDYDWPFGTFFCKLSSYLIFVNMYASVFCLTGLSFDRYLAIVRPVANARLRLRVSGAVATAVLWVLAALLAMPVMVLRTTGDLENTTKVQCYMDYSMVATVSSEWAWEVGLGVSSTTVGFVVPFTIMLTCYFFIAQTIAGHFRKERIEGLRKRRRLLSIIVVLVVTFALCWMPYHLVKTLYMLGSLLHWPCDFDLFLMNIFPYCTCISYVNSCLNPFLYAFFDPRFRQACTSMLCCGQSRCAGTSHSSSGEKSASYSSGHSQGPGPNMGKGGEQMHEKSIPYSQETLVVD
Experimental: Intracellular cAMP Accumulation Assay
HEK293 cells stably expressing human APJ receptor were used to assess the activity of compounds. Cultured cells were detached and resuspended in the cAMP Homogeneous Time-Resolved Fluorescence (HTRF) assay buffer (Cisbio cat; #62AM4PEJ). The assay was performed in 384-well assay plates (Perkin-Elmer; cat #6008289) according to assay protocol provided by the manufacturer. Serial dilutions of a compound together with assay buffer containing […] IBMX and 2 μM forskolin were added to each well containing 5,000 cells and incubated for 30 minutes at room temperature. Subsequently, cAMP D2 reagent was added in the lysis buffer followed by the EuK antibody (Cisbio; cat #62AM4PEJ) and incubated for 60 min. The fluorescence emission ratio was measured using fluorometer. The intracellular cAMP concentrations (compound-stimulated inhibition of forskolin-mediated cAMP production) were calculated by extrapolation from a standard curve using known cAMP concentrations. The EC50 values were obtained by fitting the data to a sigmoidal concentration-response curve with variable slope. The maximal achievable inhibition of forskolin-induced cAMP levels (Ymax) for each compound was expressed as relative percentage of inhibition attained using pyroglutamated apelin-13 ((Pyr1)apelin-13) peptide, which was set to 100%.
The examples disclosed below were tested in the APJ in vitro assays described above and were found having human APJ cyclic AMP (hcAMP) activity. The EC50 value of each compound is presented at the end of the example description.
The biological activity of the exemplified compounds of this invention determined by the assay described above is shown at the end of each example.

Structure (SMILES) | EC50 [nM]
CCCCc1nc(O)c(S(=O)(=O)c2ccc(Br)cc2)c(O)c1N(CC)c1ccccc1 [Example 077, 3-((4-bromophenyl)sulfonyl)-6-butyl-5-(ethyl(phenyl)amino)pyridine-2,4-diol] | 10 to 100
CCCCc1nc(O)c(S(=O)(=O)c2ccc(-c3ccnc(OC)c3)cc2)c(O)c1N(CC)c1ccccc1 [Example 081, 6-butyl-5-(ethyl(phenyl)amino)-3-((4-(2-methoxypyridin-4-yl)phenyl)sulfonyl)pyridine-2,4-diol] | 0.01 to 10
CCCCc1nc(O)c(S(=O)(=O)c2ccc(-c3ccc(F)nc3C)cc2)c(O)c1N(C)c1cccc(F)c1 [Example 109, 6-butyl-3-((4-(6-fluoro-2-methylpyridin-3-yl)phenyl)sulfonyl)-5-((3-fluorophenyl)(methyl)amino)pyridine-2,4-diol] | 10 to 100
CCCCc1nc(O)c(S(=O)(=O)c2ccc(-c3ccc(F)nc3C)cc2)c(O)c1N(C)c1cccc(OC)c1 [Example 030, 6-butyl-3-((4-(6-fluoro-2-methylpyridin-3-yl)phenyl)sulfonyl)-5-((3-methoxyphenyl)(methyl)amino)pyridine-2,4-diol] | 10 to 100
CCCCc1nc(O)c(S(=O)(=O)c2ccc(-c3cccnc3C)cc2)c(O)c1N(C)c1ccccc1C [Example 194, 6-butyl-5-(methyl(o-tolyl)amino)-3-((4-(2-methylpyridin-3-yl)phenyl)sulfonyl)pyri-dine-2,4-diol] | 10 to 100
CCCCc1nc(O)c(S(=O)(=O)c2ccc(-c3cccnc3C)cc2)c(O)c1N(C)c1ccccc1F [Example 124, 6-butyl-5-((2-fluorophenyl)(methyl)amino)-3-((4-(2-methylpyridin-3-yl)phenyl)sulfonyl)pyridine-2,4-diol] | 0.01 to 10
CCCCc1nc(O)c(S(=O)(=O)c2ccc(-c3cccnc3C)cc2)c(O)c1N1CCCCc2ccccc21 [Example 173, 6-butyl-3-((4-(2-methylpyridin-3-yl)phenyl)sulfonyl)-5-(2,3,4,5-tetrahydro-1H-benzo[b]azepin-1-yl)pyridine-2,4-diol] | 10 to 100
CCCCc1nc(O)c(S(=O)(=O)c2ccc(-c3ccnc(F)c3C)cc2)c(O)c1N1CCCOc2ccccc21 [Example 127, 6-butyl-5-(3,4-dihydrobenzo[b][1,4]oxazepin-5(2H)-yl)-3-((4-(2-fluoro-3-methylpyridin-4-yl)phenyl)sulfonyl)pyridine-2,4-diol] | 0.01 to 10
CCCCc1nc(O)c(S(=O)(=O)c2ccc(-c3ccncc3C)cc2)c(O)c1N(CC)c1cc(C)cc(C)c1 [Example 133, 6-butyl-5-((3,5-dimethylphenyl)(ethyl)amino)-3-((4-(3-methylpyridin-4-yl)phenyl)sulfonyl)pyridine-2,4-diol] | 0.01 to 10
CCCCc1nc(O)c(S(=O)(=O)c2ccc(-c3ccc(F)nc3)cc2)c(O)c1N(C)c1ccccc1 [Example 012, 6-butyl-3-((4-(6-fluoropyridin-3-yl)phenyl)sulfonyl)-5-(methyl(phenyl)amino)pyridine-2,4-diol] | 0.01 to 10
CCCCc1nc(O)c(S(=O)(=O)c2ccc(-c3cccnc3C)cc2)c(O)c1N(C)c1cccc(F)c1 [Example 101, 6-butyl-5-((3-fluorophenyl)(methyl)amino)-3-((4-(2-methylpyridin-3-yl)phenyl)sulfonyl)pyridine-2,4-diol] | 0.01 to 10
CCCCc1nc(O)c(S(=O)(=O)c2ccc(-c3ccccc3C(=O)NC)cc2)c(O)c1N1CCCCc2ccccc21 [Example 184, 4′-((6-butyl-2,4-dihydroxy-5-(2,3,4,5-tetrahydro-1H-benzo[b]azepin-1-yl)pyridin-3-yl)sulfonyl)-N-methyl-[1,1′-biphenyl]-2-carboxamide] | 10 to 100
CCCCc1nc(O)c(S(=O)(=O)c2ccc(-c3ccccc3C(N)=O)cc2)c(O)c1N(CC)c1cccc(C#N)c1 [Example 181, 4′-((6-butyl-5-((3-cyanophenyl)(ethyl)a-mino)-2,4-dihdyroxypyridin-3-yl)sulfonyl)-[1,1′-biphenyl]-2-carboxamide] | 0.01 to 10
CCCCc1nc(O)c(S(=O)(=O)c2ccc(-c3cccnc3C)cc2)c(O)c1N(C)c1cccc(C)c1 [Example 096, 6-butyl-5-(methyl(m-tolyl)amino)-3-((4-(2-methylpyridin-3-yl)phenyl)sulfonyl)pyridine-2,4-diol] | 0.01 to 10
CCCCc1nc(O)c(S(=O)(=O)c2ccc(-c3cccnc3C)cc2)c(O)c1N1CCCOc2ccccc21 [Example 123, 6-butyl-5-(3,4-dihydrobenzo[b][1,4]oxazepin-5(2H)-yl)-3-((4-(2-methylpyridin-3-yl)phenyl)sulfonyl)pyridine-2,4-diol] | 10 to 100
CCCCc1nc(O)c(S(=O)(=O)c2ccc(-c3ccccc3)cc2)c(O)c1N(CC)c1ccccc1 [Example 088, 3-([1,1′-biphenyl]-4-ylsulfonyl)-6-butyl-5-(ethyl(phenyl)amino)pyridine-2,4-diol] | 10 to 100
CCCCc1nc(O)c(S(=O)(=O)c2ccc(-c3ccccc3C(N)=O)cc2)c(O)c1N(C)c1ccccc1C [Example 195, 4′-((6-butyl-2,4-dihydroxy-5-(methyl(o-tolyl)amino)pyridin-3-yl)sulfonyl)-[1,1′-biphenyl]-2-carboxamide] | 0.01 to 10

Continued, values first:

EC50 [nM] | Structure (SMILES)
0.01 to 10 | CCN(c1ccccc1)c1c(-c2cnc(C)s2)nc(O)c(S(=O)(=O)c2ccc(-c3ccc(F)nc3C)cc2)c1O [Example 190, 5-(ethyl(phenyl)amino)-3-((4-(6-fluoro-2-methylpyridin-3-yl)phenyl)sulfonyl)-6-(2-methylthiazol-5-yl)pyridine-2,4-diol]
0.01 to 10 | Cc1c(-c2ccc(S(=O)(=O)c3c(O)nc(-c4ccn(C)n4)c(N(c4ccccc4)C(C)C)c3O)cc2)ccnc1F [Example 164, 3-((4-(2-fluoro-3-methylpyridin-4-yl)phenyl)sulfonyl)-5-(isopropyl(phen-yl)amino)-6-(1-methyl-1H-pyrazol-3-yl)pyridine-2,4-diol]
0.01 to 10 | CCN(c1ccccc1)c1c(-c2cccc(C)c2)nc(O)c(S(=O)(=O)c2ccc(-c3ccccc3C(N)=O)cc2)c1O [Example 144, 4′-((5-(ethyl(phenyl)amino)-2,4-dihydroxy-6-(m-tolyl)pyridin-3-yl)sulfonyl)-[1,1′-biphenyl]-2-carboxamide]
0.01 to 10 | CCN(c1cccc(C#N)c1)c1c(-c2ccn(C)n2)nc(O)c(S(=O)(=O)c2ccc(-c3cccnc3C)cc2)c1O [Example 217]
0.01 to 10 | CCN(c1cccc(C#N)c1)c1c(-c2ccn(C)n2)nc(O)c(S(=O)(=O)c2ccc(-c3ccnc(F)c3C)cc2)c1O [Example 211, 3-(ethyl(5-((4-(2-fluoro-3-methylpyridin-4-yl)phenyl)sulfonyl)-4,6-dihydroxy-2-(1-methyl-1H-pyrazol-3-yl)pyridin-3-yl)amino)benzonitrile]
0.01 to 10 | CCN(c1ccccc1)c1c(-c2cnn(C)c2)nc(O)c(S(=O)(=O)c2ccc(-c3ccccc3C(=O)NC3CC3)cc2)c1O [Example 153, N-cyclopropyl-4′-((5-(ethyl(phenyl)amino)-2,4-dihydroxy-6-(1-methyl-1H-pyrazol-4-yl)pyridin-3-yl)sulfonyl)-[1,1′-biphenyl]-2-carboxamide]
0.01 to 10 | CCCCc1nc(O)c(S(=O)(=O)c2ccc(-c3ccccc3C(N)=O)cc2)c(O)c1N(CC)c1ccccc1 [Example 085, 4′-((6-butyl-5-(ethyl(phenyl)amino)-2,4-dihydroxypyridin-3-yl)sulfonyl)-[1,1′-biphenyl]-2-carboxamide]

same assay, conditions: HEK293 cells stably expressing human APJ receptor; inhibition of forskolin-mediated cAMP production; Table 2; read-out: hAPJ cAMP EC50 Potency range

EC50 [nM] | Structure (SMILES)
0.01 to 10 | CCN(c1ccccc1)c1c(-c2ccn(C)n2)nc(O)c(C(=O)N2CCC(c3ccc(F)cc3F)C2)c1O (stereo not drawn) [Example 207, (3-(2,4-difluorophenyl)pyrrolidin-1-yl)(5-(ethyl(phenyl)amino)-2,4-dihydroxy-6-(1-methyl-1H-pyrazol-3-yl)pyridin-3-yl)methanone]
0.01 to 10 | CCN(c1ccccc1)c1c(-c2ccn(C)n2)nc(O)c(C(=O)N2CCC(c3ccccc3F)C2)c1O (stereo not drawn) [Example 205, (5-(ethyl(phenyl)amino)-2,4-dihydroxy-6-(1-methyl-1H-pyrazol-3-yl)pyridin-3-yl)(3-(2-fluorophenyl)pyrrolidin-1-yl)methanone]

same assay, conditions: hAPJ cAMP EC50 Potency range, HEK293 cells stably expressing human APJ receptor; inhibition of forskolin-mediated cAMP production; Table 1

Structure (SMILES) | EC50 [nM]
CCCCc1nc(O)c(C(=O)N2CCC(c3ncc(F)cc3F)C2)c(O)c1N(CC)c1ccccc1 (stereo not drawn) [Example 071, (6-butyl-5-(ethyl(phenyl)amino)-2,4-dihydroxypyridin-3-yl)(3-(3,5-difluoropyridin-2-yl)pyrrolidin-1-yl)methanone] | 0.01 to 10
